System: monoclonal antibody 1F3 (mAb 1F3)
Assay: indirect competitive ELISA against Tar-OVA coating antigen
Type: binding, Mus musculus

IC50: 0.105 ng/mL
Compound: O=C(O)c1nn(-c2ccc(S(=O)(=O)O)cc2)c(O)c1/N=N/c1ccc(S(=O)(=O)O)cc1 [Tartrazine, trisodium 5-hydroxy-1-(4-sulfonatophenyl)-4-(4-sulfonatophenylazo)-H-pyrazol-3-carboxylate]

Reference: publication PMC3758588, “Development of an Ultrasensitive Immunoassay for Detecting Tartrazine” (Sensors (Basel, Switzerland), 2013)
